Assay results reported in patent US20050209336A1, “EP2 receptor agonists” (priority 2003, published 2005).
Read-outs that look alike come from different tables or passages of the source.

Key:
human EP4 receptor = biological target: T1, human EP4 receptor (Homo sapiens, UniProt P35408); assay: Radioligand ([3H]PGE2) competition displacement binding, human EP4 receptor membranes; settings: [3H]PGE2 displacement, read-out: pKi EP4 (converted)
T1 construct: expressed in transfected cells
Protocol: (§1) Membranes were prepared from cells stably transfected with human EP receptor cDNA. In brief, cells were cultured to confluency, scraped from culture flasks, and centrifuged (800 g, 8 minutes, 4° C.). Cells were twice washed in ice cold homogenisation buffer containing 10 mMTris-HCl, 1 mM EDTA.2Na, 250 mM sucrose, 1 mM PMSF, 0.3 mM indomethacin, pH 7.4, homogenised and re-centrifuged as before. The supernatant was stored on ice and pellets re-homogenised and re-spun. Supernatants were pooled and centrifuged at 40000 g, 10 minutes, 4° C. Resultant membrane pellets were stored at −80° C. until use.
(§2) For assay, membranes expressing human EP4, EP3, EP2 or EP1 receptors were incubated in Millipore (MHVBN45) plates containing assay buffer, radiolabelled [^3H]PGE2 and 0.1 to 10 000 nM concentrations of compounds. Incubations were performed at suitable temperatures and for suitable times to allow equilibrium to be reached. Non-specific binding was determined in the presence of 10 uM PGE2. Bound and free radiolabel was separated by vacuum manifold filtration using appropriate wash buffers, and bound radiolabel was determined by scintillation counting. Constituents of each of the buffers are included in table 4 below.
(§3) The affinity or pKi of each compound for each receptor was calculated from the concentration causing 50% radioligand displacement (IC50) using the Cheng-Prusoff equation: [formula]
(§4) This approach follows that set out in Kenakin, T. P., Pharmacologic analysis of drug receptor interaction. Raven Press, New York, 2nd edition.

human EP2 receptor [1] = biological target: T2, human EP2 receptor (Homo sapiens, UniProt P43116); assay: cAMP production in HEK cells stably expressing the human EP2 receptor; format: cell-based; settings: 15 min stimulation, 4 experiments, read-out: Mean EC50
T2 construct: expressed in transfected cells; host or cells: HEK cells (HEK-EP2)
T2 sequence (P43116 whole entry): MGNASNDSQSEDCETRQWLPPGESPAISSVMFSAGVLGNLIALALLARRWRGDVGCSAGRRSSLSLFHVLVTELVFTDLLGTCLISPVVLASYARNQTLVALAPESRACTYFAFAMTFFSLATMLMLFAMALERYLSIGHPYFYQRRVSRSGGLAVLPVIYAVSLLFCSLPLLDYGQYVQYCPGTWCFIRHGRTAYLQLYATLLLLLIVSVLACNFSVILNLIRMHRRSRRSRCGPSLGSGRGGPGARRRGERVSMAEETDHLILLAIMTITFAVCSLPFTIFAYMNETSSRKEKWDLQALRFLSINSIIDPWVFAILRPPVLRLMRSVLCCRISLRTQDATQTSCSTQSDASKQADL
Protocol: The following describes an in vitro assay to determine the effect of compounds on cyclase production, that is, to determine their functional efficacy at the EP2 receptor.
HEK cells stably expressing the human EP2 receptor were used for these assays. HEK-EP2 cells were cultured in 96-well, poly-L-lysine coated plates at a density of 50,000 cells/well, and grown to confluence in humidified […] at 37° C. Culture medium was DMEM supplemented with 10% foetal bovine serum, 100 U/ml penicillin, […], 2.5 µg/ml fungizone, 2 mM glutamine, 250 µg/ml geneticin and 200 µg/ml zeocin.
On reaching confluence, culture media was rinsed off using DMEM with no additions, before 175 µl assay buffer (DMEM containing 1 mM 3-isobutyl-1-methylxanthine and 3 µM indomethacin) was added to each well. This was allowed to incubate for 1 hr before the cells were stimulated with the test compounds (in triplicate) at final concentrations of 10^−9M to 10^−5M for 15 minutes. The assay was terminated by the addition of 25 µl 1M hydrochloric acid. Plates were then frozen for a minimum of 12 hours or until required for radioligand displacement assay.
Plates were thawed quickly at 37° C., and neutralised with 25 µl 1M sodium hydroxide. 30 µl of supernatant was transferred to 96-well Millipore (MAFNOB) plates coated with 0.1% Polyethylenimine. These supernatants were diluted by addition of 90[…]1 cAMP assay buffer (50 mM Tris, 5 mM EDTA, pH 7.0). A cAMP standard curve (10^−11M to 10^−5M) was constructed. 15 µl of 3′:5′-cAMP-dependent protein kinase (final concentration 8 µg/well), and 15 µl [^3H]-cAMP (final concentration 2 nM/well) were added to each well.
Plates were incubated on ice for 2 hours, before bound and free radiolabel were separated by vacuum filtration harvesting on the Millipore manifold, using ice cold water as the termination buffer. Filter plates were allowed to dry overnight, before addition of 50 µl Microscint. Radioactivity was determined using the Microbeta Trilux scintillation counter. cAMP accumulation was determined from the standard curve, and the values plotted as pmoles cAMP/well.

human EP3 receptor = biological target: T3, human EP3 receptor (Homo sapiens, UniProt P43115); assay: Radioligand ([3H]PGE2) competition displacement binding, human EP3 receptor membranes; settings: [3H]PGE2 displacement, read-out: pKi EP3 (converted)
T3 construct: expressed in transfected cells
T3 sequence (P43115 1-390): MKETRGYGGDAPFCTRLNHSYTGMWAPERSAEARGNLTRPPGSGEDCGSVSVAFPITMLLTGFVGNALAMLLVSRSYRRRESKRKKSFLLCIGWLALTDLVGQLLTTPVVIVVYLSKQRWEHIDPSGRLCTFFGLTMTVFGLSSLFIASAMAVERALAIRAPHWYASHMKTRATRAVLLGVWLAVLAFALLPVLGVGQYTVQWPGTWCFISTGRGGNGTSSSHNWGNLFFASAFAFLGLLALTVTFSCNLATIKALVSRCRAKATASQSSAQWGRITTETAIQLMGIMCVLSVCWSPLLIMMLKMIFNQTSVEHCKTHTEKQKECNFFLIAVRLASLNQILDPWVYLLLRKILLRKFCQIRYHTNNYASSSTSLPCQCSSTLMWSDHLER
Protocol: as §1, §2, §3, §4

human EP2 receptor [2] = biological target: T2, human EP2 receptor; assay: Radioligand ([3H]PGE2) competition displacement binding, human EP2 receptor membranes; settings: human EP2 membranes, [3H]PGE2 displacement, Cheng-Prusoff; mean of 4 experiments; read-out: pKi EP2 (converted)
Protocol: as §1, §2, §3, §4

lymphocyte proliferation = assay: Lymphocyte proliferation driven by immobilised anti-CD3 antibody; format: cell-based, human; settings: inhibition of lymphocyte proliferation, 72 h, mean of three donors; for EC50: read-out: Mean EC50; for Mean Log (EC50): log scale
From the text: (§5) Lymphocytes are mononuclear leukocytes, which participate in specific immune responses to foreign antigens and in the manifestation of auto-immune diseases. T lymphocytes produce IL-2, a key factor for lymphocyte activation and proliferation, in response to antigen stimulation via the CD3-T cell receptor complex and the pathway involved in this response is the NF-AT. […] A lymphocyte assay was designed to model this response and to determine the effect of test compound on IL-2 production by anti-CD3-stimulated T cells isolated from peripheral blood. This assay uses a sub-optimal dose of an anti-CD3 monoclonal antibody (OKT3, 25 ng/ml) immobilised to a 96-well plate to stimulate a T cell response. The level of IL-2 released into the cell culture supernatants was quantified using a standard sandwich ELISA. Similarly, other cytokines such as TNFα and IFN-γ can also be measured in the same assay.
(§6) Human peripheral blood mononuclear cells from healthy volunteers were isolated from whole blood by Ficoll-Hypaque density centrifugation and adherence to plastic. The non-adherent lymphocyte fraction was used to set up the lymphocyte assay and the adherent monocytes were then recovered by scraping and subsequently used in the monocyte assay.
For the measurement of lymphocyte proliferation driven by immobilised anti-CD3 monoclonal antibody, the assay was set up in the same way as for the measurement of IL-2 release, except that the cells were cultured for 72 hours in the presence or absence of test compounds. Four hours prior to the termination of the proliferation assay, a novel tetrazolium compound solution supplied by Promega in the format of Cell Proliferation Assay Kit was added to individual wells according to the manufacturer's instruction. The plate was then placed back in the incubator for the remaining 4 hours and the […] reaction was measured using a spectrophotometer at an absorbent wavelength of 490 nm (SpectraMax, Molecular Devices) according to the manufacturer's instruction.

[3] = system: TNFα production by lymphocytes; assay: Lymphocyte assay: TNFα production; format: cell-based, human; settings: inhibition of TNFα production by lymphocytes, mean of three donors; for EC50: read-out: Mean EC50; for Mean Log (EC50): log scale
From the text: as §5, §6
(§7) Lymphocytes were then seeded to a 96-well plate pre-coated with anti-CD3 monoclonal antibody (OKT3) at 25 ng/ml and immediately, the test compounds (Peak 1, mixture 1 acid; Peak 1, mixture 2 acid; AH-13205 racemate; PGE2) in appropriate dilutions were added to corresponding wells according to the experimental design. The plate was incubated for 24 hours at 37° C. with 5% CO2 in air and supernatants were recovered for ELISA analysis at the end of incubation period. The levels of IFN-γ was assessed by using the ProteoPlex 16 well human cytokine array assay kit according to the manufacturer's instruction.

[4] = system: IL-2 production by OKT3 activated T cells; assay: Lymphocyte assay: IL-2 production by anti-CD3 (OKT3) stimulated T cells; format: cell-based, human; settings: inhibition of IL-2 production, 24 h; for EC50: read-out: Mean EC50; for Mean Log (EC50): log scale
From the text: as §5, §6, §7

[5] = system: TNFα production by alveolar macrophages; assay: Alveolar macrophage assay: LPS-induced TNFα release; format: cell-based, human; settings: inhibition of TNFα production, LPS 1 μg/ml, 24 h, mean of three donors
Protocol: Human lung parenchyma was cut into small pieces and perfused with ice-cold phosphate buffered saline (PBS) to remove contaminating blood and mucus. The tissues were then chopped with scissors in the presence of Minimum Essential Medium supplemented with penicillin, streptomycin, L-glutamine and DNase (0.25 mg/ml). The chopped tissues were shaken gently to dislodge the macrophages. A crude cell suspension was then obtained by the removal of the tissues with a sterile filter (150 μm pore size). The resulting cell suspension was spun and the cell pellet collected. Contaminating red blood cells were depleted with a red blood cell lysis buffer and the remaining cells washed twice with PBS by centrifugation. Alveolar macrophages were then purified from this cell preparation by using a positive selection method for CD14-molecule bearing cells using a VarioMac™ Separator and respective positive selection reagents and columns supplied by Miltenyi Biotec Ltd according to the manufacturer's instruction.
For the assay, alveolar macrophages were resuspended in complete culture medium consisting of RPMI1640 supplemented with 10% foetal calf serum, L-glutamine and antibiotics. The cells were then plated into 24 well plates (4×10^5 cell/well) and incubated overnight at 37° C. with 5% CO2 in air to allow cell adherence. The exhausted medium was then removed from the plates and the plates rinsed briefly with fresh medium before the addition of test compound solutions. The test compounds were incubated with the cells for 30 minutes before the addition of E. Coli LPS (1 μg/ml). The assay plates were incubated in a humidified incubator at 37° C. with 5% CO2 in air for 24 hours. The release of TNFα by the cells into the culture supernatants was quantified using an ELISA kit (DuoSet® human TNFα ELSIA Development System) supplied by R+D Systems (Europe) according to the manufacturer's instruction. Indomethacin at 3 μM was included in all treatments to inhibit the possible release of endogenous prostaglandin E2.

[6] = system: human myometrial smooth muscle; assay: Human myometrial activity: inhibition of electrical field stimulation (EFS) induced contractions; format: cell-based; settings: at 10^-4M, n=7 donors
Protocol: The following describes an in vitro functional assay, using human myometrial smooth muscle, to determine the affinity of the test compounds at the EP2 receptor in human tissues.
Sections of human myometrium were prepared from samples of surgically removed uterus longitudinal myometrial muscle strips (2 mm wide by 10 mm long) were then cut and suspended between stainless steel hooks in organ chambers containing oxygenated (95% O2/5% CO2) Krebs solution at 37° C. The composition of the Krebs solution was as follows: NaCl (118.2 mM), KCl (4.69 mM), MgSO4.7H2O (1.18 mM), KH2PO4 (1.19 mM), glucose (11.1 mM), NaHCO3 (25.0 mM), CaCl2.6H2O (2.5 mM), indomethacin 3×10^−6M.
Tissues were placed under a tension equivalent to 25 mN and left overnight at room temperature. The following day the tissues were maintained at 37° C., washed and placed under a tension of 15 mN then allowed to equilibrate for a period of at least 30 minutes. Responses were recorded using isometric transducers coupled to an Apple Macintosh computer via a MacLab interface. After 60 minutes, the muscle sections of the human myometrium were stimulated electrically (15 ms pulse width, for 10 s every 100 s at 15V and 0.5-40 Hz) using parallel platinum wire electrodes and a Multistim D330 pulse stimulator. Upon electrical stimulation, the strips of human myometrial smooth muscle responded with a rapid contraction. Once the response to electrical stimulation had stabilised (stimulated responses differed by no more than 10%), the strips were exposed to increasing concentrations of test compounds (1×10^−7 to 1×10^−4M, incubated for at least 15 minutes at each concentration). At the end of the experiment, application of sodium nitroprusside (SNP, a nitric oxide donor that causes smooth muscle relaxation) (1×10^−4M) was used to produce a standard relaxatory response. To determine the affinity of the compounds, the concentration of test compound required to produce half-maximal effects (EC50) was calculated, as was the maximum response (calculated as a percentage of the standard response produced with SNP).

[7] = mean of four donors (FIG. 9, table 7)
[8] = mean of three to five donors (FIG. 10, table 8)

T1 sequence (P35408 whole entry): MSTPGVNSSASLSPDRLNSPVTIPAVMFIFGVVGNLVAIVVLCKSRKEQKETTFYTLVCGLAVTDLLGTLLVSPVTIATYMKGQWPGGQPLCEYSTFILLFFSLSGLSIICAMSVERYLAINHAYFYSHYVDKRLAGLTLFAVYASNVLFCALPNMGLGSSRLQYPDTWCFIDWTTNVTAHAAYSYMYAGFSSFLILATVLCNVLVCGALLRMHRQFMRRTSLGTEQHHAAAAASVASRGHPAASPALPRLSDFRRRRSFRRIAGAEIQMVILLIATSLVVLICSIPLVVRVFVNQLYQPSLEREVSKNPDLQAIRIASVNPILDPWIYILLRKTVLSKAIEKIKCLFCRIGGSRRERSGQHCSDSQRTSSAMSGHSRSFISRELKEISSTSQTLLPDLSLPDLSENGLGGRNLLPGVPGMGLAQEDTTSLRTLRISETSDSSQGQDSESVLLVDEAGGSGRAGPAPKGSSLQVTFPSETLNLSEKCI

| Compound | Ki (human EP4 receptor) [nM] | EC50 (human EP2 receptor [1]) [nM] | Ki (human EP3 receptor) [nM] | Ki (human EP2 receptor [2]) [nM] | EC50 [3] [nM] | Mean Log (EC50) [3] | EC50 [4, 8] [nM] | Mean Log (EC50) [4, 8] | EC50 (lymphocyte proliferation) [nM] | Mean Log (EC50) (lymphocyte proliferation) | also measured |
| --- | --- | --- | --- | --- | --- | --- | --- | --- | --- | --- | --- |
| CCCCC[C@H](O)/C=C/[C@H]1[C@H](O)CC(=O)[C@@H]1C/C=C\CCCC(=O)O [PGE2, prostaglandin E2] | – | – | – | – | 10.7 | −7.971 | 21.1 | −7.677 | 25.8 | −7.589 | EC50 [4, 7]: 28 nM; Mean Log (EC50) [4, 7]: −7.554; EC50 ([5]; read-out: Mean EC50): 125 nM; Mean Log (EC50) ([5]; log scale): −6.904 |
| CC(C)(C)NCC(O)c1cc(O)cc(O)c1 (stereo not shown) [terbutaline, reference compound] | – | – | – | – | – | – | – | – | – | – | % of the control EFS-induced contraction [6]: 98±5% |

Further lines, with some results ahead:

| Ki (human EP4 receptor) [nM] | EC50 (human EP2 receptor [1]) [nM] | Ki (human EP3 receptor) [nM] | Ki (human EP2 receptor [2]) [nM] | EC50 [3] [nM] | Mean Log (EC50) [3] | EC50 [4, 8] [nM] | Mean Log (EC50) [4, 8] | Compound | EC50 (lymphocyte proliferation) [nM] | Mean Log (EC50) (lymphocyte proliferation) | also measured |
| --- | --- | --- | --- | --- | --- | --- | --- | --- | --- | --- | --- |
| 31600 | 323 | 15800 | 1580 | – | – | – | – | CCCCC[C@H](O)c1ccc([C@@H]2CCC(=O)[C@H]2CCCCCCC(=O)O)cc1 (single isomer, unassigned) [Peak 2, Mixture 1 acid] | – | – | – |
| 15800 | 407 | 20000 | 501 | – | – | – | – | CCCCC[C@@H](O)c1ccc([C@@H]2CCC(=O)[C@H]2CCCCCCC(=O)O)cc1 (single isomer, unassigned) [Peak 2, Mixture 2 acid] | – | – | – |
| – | – | – | – | 292 | −6.535 | 124 | −6.906 | butaprost | 996 | −6.015 | – |
